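Tested at 5 concentrations; 48 h exposure; 96-well plates; endpoints linearly interpolated, else capped at highest concentration. At the TGI there is no net growth.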
How the values were obtained:
Assay in all cases: NCI tumour cell line growth inhibition, 48 h
A498 renal = tested on: A498 renal
A549 NSCLC = tested on: A549 NSCLC
CCRF-CEM leukemia = tested on: CCRF-CEM leukemia
COLO 205 colon = tested on: COLO 205 colon
DLD-1 colon = tested on: DLD-1 colon
DMS 114 small cell lung = tested on: DMS 114 small cell lung
DMS 273 small cell lung = tested on: DMS 273 small cell lung
EKVX NSCLC = tested on: EKVX NSCLC
HCC-2998 colon = tested on: HCC-2998 colon
HCT-116 colon = tested on: HCT-116 colon
HCT-15 colon = tested on: HCT-15 colon
HL-60(TB) leukemia = tested on: HL-60(TB) leukemia
HOP-18 NSCLC = tested on: HOP-18 NSCLC
HOP-62 NSCLC = tested on: HOP-62 NSCLC
HT29 colon = tested on: HT29 colon
IGROV1 ovarian = tested on: IGROV1 ovarian
K-562 leukemia = tested on: K-562 leukemia
KM12 colon = tested on: KM12 colon
KM20L2 colon = tested on: KM20L2 colon
LOX IMVI melanoma = tested on: LOX IMVI melanoma
M19-MEL melanoma = tested on: M19-MEL melanoma
MALME-3M melanoma = tested on: MALME-3M melanoma
MCF7 breast = tested on: MCF7 breast
MOLT-4 leukemia = tested on: MOLT-4 leukemia
NCI-H226 lung = tested on: NCI-H226 lung
NCI-H23 lung = tested on: NCI-H23 lung
NCI-H460 lung = tested on: NCI-H460 lung
NCI-H522 lung = tested on: NCI-H522 lung
NCI/ADR-RES ovarian = tested on: NCI/ADR-RES ovarian
OVCAR-3 ovarian = tested on: OVCAR-3 ovarian
OVCAR-4 ovarian = tested on: OVCAR-4 ovarian
OVCAR-5 ovarian = tested on: OVCAR-5 ovarian
OVCAR-8 ovarian = tested on: OVCAR-8 ovarian
P388 leukemia = tested on: P388 leukemia
P388/ADR leukemia = tested on: P388/ADR leukemia
RPMI-8226 leukemia = tested on: RPMI-8226 leukemia
RXF 393 renal = tested on: RXF 393 renal
SF-268 CNS = tested on: SF-268 CNS
SF-295 CNS = tested on: SF-295 CNS
SF-539 CNS = tested on: SF-539 CNS
SK-MEL-2 melanoma = tested on: SK-MEL-2 melanoma
SK-MEL-28 melanoma = tested on: SK-MEL-28 melanoma
SK-MEL-5 melanoma = tested on: SK-MEL-5 melanoma
SK-OV-3 ovarian = tested on: SK-OV-3 ovarian
SN12C renal = tested on: SN12C renal
SN12K1 renal = tested on: SN12K1 renal
SNB-19 CNS = tested on: SNB-19 CNS
SNB-75 CNS = tested on: SNB-75 CNS
SNB-78 CNS = tested on: SNB-78 CNS
SW-620 colon = tested on: SW-620 colon
U251 CNS = tested on: U251 CNS
UACC-257 melanoma = tested on: UACC-257 melanoma
UACC-62 melanoma = tested on: UACC-62 melanoma
UO-31 renal = tested on: UO-31 renal
XF 498 CNS = tested on: XF 498 CNS
786-0 renal = tested on: 786-0 renal
ACHN renal = tested on: ACHN renal
CAKI-1 renal = tested on: CAKI-1 renal
LXFL 529 NSCLC = tested on: LXFL 529 NSCLC
M14 melanoma = tested on: M14 melanoma
RXF-631 renal = tested on: RXF-631 renal
SR leukemia = tested on: SR leukemia
TK-10 renal = tested on: TK-10 renal

`C=CC1(NC(=O)c2ccccc2)CCC(C(C)(C)C)CC1` (stereo not drawn) was tested, and the TGI (A498 renal) was over 100 µM, the TGI (A549 NSCLC) was over 100 µM and the TGI (CCRF-CEM leukemia) was 72.1 µM. It also gave a TGI (COLO 205 colon) of 43.2 µM, a TGI (DLD-1 colon) of over 100 µM and a TGI (DMS 114 small cell lung) of over 90.7 µM. For the same compound, the TGI (DMS 273 small cell lung) was over 73.2 µM, the TGI (EKVX NSCLC) was over 83.2 µM and the TGI (HCC-2998 colon) was over 100 µM. It also gave a TGI (HCT-116 colon) of 55.1 µM, a TGI (HCT-15 colon) of over 85 µM and a TGI (HL-60(TB) leukemia) of 33 µM. For the same compound, the TGI (HOP-18 NSCLC) was over 95.6 µM, the TGI (HOP-62 NSCLC) was over 90.5 µM and the TGI (HT29 colon) was 55 µM. It also gave a TGI (IGROV1 ovarian) of over 100 µM, a TGI (K-562 leukemia) of over 100 µM and a TGI (KM12 colon) of over 100 µM. It also gave a TGI (KM20L2 colon) of 39.7 µM, a TGI (LOX IMVI melanoma) of 39.3 µM and a TGI (M19-MEL melanoma) of 84.4 µM. For the same compound, the TGI (MALME-3M melanoma) was over 94.9 µM, the TGI (MCF7 breast) was over 83.5 µM and the TGI (MOLT-4 leukemia) was 30.3 µM. For the same compound, the TGI (NCI-H226 lung) was over 71.6 µM, the TGI (NCI-H23 lung) was over 85 µM and the TGI (NCI-H460 lung) was over 92.3 µM. For the same compound, the TGI (NCI-H522 lung) was 94 µM, the TGI (NCI/ADR-RES ovarian) was 76.1 µM and the TGI (OVCAR-3 ovarian) was 86.7 µM. For the same compound, the TGI (OVCAR-4 ovarian) was over 100 µM, the TGI (OVCAR-5 ovarian) was over 100 µM and the TGI (OVCAR-8 ovarian) was over 100 µM. It also gave a TGI (P388 leukemia) of 38.4 µM, a TGI (P388/ADR leukemia) of over 77.4 µM and a TGI (RPMI-8226 leukemia) of over 100 µM. For the same compound, the TGI (RXF 393 renal) was over 85.8 µM, the TGI (SF-268 CNS) was over 100 µM and the TGI (SF-295 CNS) was 74 µM. For the same compound, the TGI (SF-539 CNS) was over 100 µM, the TGI (SK-MEL-2 melanoma) was 56.6 µM and the TGI (SK-MEL-28 melanoma) was over 100 µM. It also gave a TGI (SK-MEL-5 melanoma) of 43.9 µM, a TGI (SK-OV-3 ovarian) of over 100 µM and a TGI (SN12C renal) of over 61.4 µM. The TGI (SN12K1 renal) was over 96.7 µM, the TGI (SNB-19 CNS) was over 100 µM and the TGI (SNB-75 CNS) was over 81.5 µM. The TGI (SNB-78 CNS) was over 100 µM, the TGI (SW-620 colon) was over 84.4 µM and the TGI (U251 CNS) was 53.8 µM. For the same compound, the TGI (UACC-257 melanoma) was over 77 µM, the TGI (UACC-62 melanoma) was 97.8 µM and the TGI (UO-31 renal) was 77.7 µM. It also gave a TGI (XF 498 CNS) of over 70.6 µM.
Work on `CS(=O)(=O)c1ccc(-c2cc(-c3ccc(S(C)(=O)=O)cc3)[n+](-c3cc(-c4ccc(S(C)(=O)=O)cc4)c([O-])c(-c4ccc(S(C)(=O)=O)cc4)c3)c(-c3ccc(S(C)(=O)=O)cc3)c2)cc1` yielded a TGI (786-0 renal) of over 100 µM, a TGI (A549 NSCLC) of over 100 µM and a TGI (ACHN renal) of over 100 µM. The TGI (CAKI-1 renal) was over 100 µM, the TGI (CCRF-CEM leukemia) was over 100 µM and the TGI (COLO 205 colon) was over 100 µM. For the same compound, the TGI (DLD-1 colon) was over 100 µM, the TGI (DMS 114 small cell lung) was over 100 µM and the TGI (DMS 273 small cell lung) was over 100 µM. For the same compound, the TGI (HCC-2998 colon) was over 100 µM, the TGI (HCT-116 colon) was over 100 µM and the TGI (HCT-15 colon) was over 100 µM. The TGI (HOP-18 NSCLC) was over 100 µM, the TGI (HOP-62 NSCLC) was over 100 µM and the TGI (HT29 colon) was over 100 µM. The TGI (IGROV1 ovarian) was over 100 µM, the TGI (K-562 leukemia) was over 100 µM and the TGI (KM12 colon) was over 100 µM. It also gave a TGI (KM20L2 colon) of over 100 µM, a TGI (LOX IMVI melanoma) of over 100 µM and a TGI (LXFL 529 NSCLC) of over 100 µM. The TGI (M14 melanoma) was over 100 µM, the TGI (M19-MEL melanoma) was over 100 µM and the TGI (MALME-3M melanoma) was over 100 µM. It also gave a TGI (MOLT-4 leukemia) of over 100 µM, a TGI (NCI-H226 lung) of over 100 µM and a TGI (NCI-H23 lung) of over 100 µM. The TGI (NCI-H460 lung) was over 100 µM, the TGI (NCI-H522 lung) was over 100 µM and the TGI (OVCAR-3 ovarian) was over 100 µM. The TGI (OVCAR-4 ovarian) was over 100 µM, the TGI (OVCAR-5 ovarian) was over 100 µM and the TGI (OVCAR-8 ovarian) was over 100 µM. The TGI (RPMI-8226 leukemia) was over 100 µM, the TGI (RXF 393 renal) was over 100 µM and the TGI (RXF-631 renal) was over 100 µM. For the same compound, the TGI (SF-268 CNS) was over 100 µM, the TGI (SF-295 CNS) was over 100 µM and the TGI (SF-539 CNS) was over 100 µM. For the same compound, the TGI (SK-MEL-2 melanoma) was over 100 µM, the TGI (SK-MEL-28 melanoma) was over 100 µM and the TGI (SK-MEL-5 melanoma) was over 100 µM. For the same compound, the TGI (SN12C renal) was over 100 µM, the TGI (SNB-19 CNS) was over 100 µM and the TGI (SNB-75 CNS) was over 100 µM. It also gave a TGI (SNB-78 CNS) of over 100 µM, a TGI (SR leukemia) of over 100 µM and a TGI (SW-620 colon) of over 100 µM. It also gave a TGI (TK-10 renal) of over 100 µM, a TGI (U251 CNS) of over 100 µM and a TGI (UACC-257 melanoma) of over 100 µM. It also gave a TGI (UACC-62 melanoma) of over 100 µM and a TGI (UO-31 renal) of over 100 µM.

Reference: PubChem BioAssay (NCI)
